The experiment concerns the target T1, TRIB1 (Homo sapiens, UniProt Q96RU8).
T1 sequence (Q96RU8 84-372): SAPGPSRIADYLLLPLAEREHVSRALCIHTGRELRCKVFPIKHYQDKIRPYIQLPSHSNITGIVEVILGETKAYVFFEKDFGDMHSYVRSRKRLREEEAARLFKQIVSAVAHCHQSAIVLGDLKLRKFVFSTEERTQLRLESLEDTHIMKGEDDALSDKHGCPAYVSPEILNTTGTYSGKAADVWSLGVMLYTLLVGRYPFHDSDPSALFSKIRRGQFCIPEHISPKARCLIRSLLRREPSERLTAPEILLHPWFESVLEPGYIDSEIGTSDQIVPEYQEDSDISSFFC
Description: DSF destabilization. The format is binding.

Consider `COc1cccc(COc2cc(-n3cnc4ccccc43)sc2C(N)=O)c1` [GW804482X], for which the DSF destabilization result is on record as “although like TRIB2, destabilization was evident in the presence of GW804482X (fig. S3C)”.

Values taken from article PMC6553640 (Science signaling, 2018).
